Publication PMC4160546, “Biotechnical paving of recombinant enterocin A as the candidate of anti-Listeria agent” (BMC Microbiology, 2014)
≈ marks a conversion by molar mass, not a printed value.

Key:
[1] = tested on: L. ivanovii ATCC19119; assay: In-vitro killing curve (time-kill) assay; assay type: cell-based, Listeria ivanovii; details: 2 × MIC, 10 h time-kill
Description: To evaluate the antibacterial activity of rEntA against L. ivanovii ATCC19119, a time-kill assay was performed as described by the methods of Mao [32]. In addition, tubes with only bacterial inoculum were used as growth controls. All experiments were performed in triplicate.

[2] = tested on: L. ivanovii ATCC19119; assay: MIC and MBC, microtiter broth dilution method; assay type: cell-based; details: Listeria ivanovii, triplicate
Description: Minimal inhibitory concentrations (MICs) and Minimum bactericidal concentrations (MBCs) assays were determined using the microtiter broth dilution method. Ampicillin was also tested with the same concentration gradient as a positive control. All tests were performed in triplicate.

[3] = tested on: digestive proteases trypsin and pepsin; details: cited from earlier work
Description: Similarly, the purified rEntA, with 12.76% basic amino acids and 10.63% aromatic amino acids, was inactivated with trypsin and pepsin (Figure 4C). This high sensitivity to digestive proteases of rEntA contributes to its safety in foods and drugs, during and after oral administration.

[4] = cited from earlier work
Description: The native EntA was stable at 100°C and acidic pH conditions. […] These properties were potentially due to the higher cysteine content of the antimicrobial peptides, similar to the EntA containing four cysteine residues. In addition, the antimicrobial activity of some bacteriocins (nisin, sakacin P and curvacin A) was si ...

For CC1(C)S[C@@H]2[C@H](NC(=O)[C@H](N)c3ccccc3)C(=O)N2[C@H]1C(=O)O [ampicillin], the “growth of survivors after MVL” value [1] was “resumed growth”, the MBC [2] was 1.56 µg/mL (≈ 4.46 µM) and the MIC [2] was 0.39 µg/mL (≈ 1.12 µM).

In the case of “pediocin PA-1: class IIa bacteriocin (KYYGNGVTCGKHSCSVDWGKATTCIINNGAMAWATGGHQGNHKC; UniProt P29430 19-62, looked up)”, the “sensitivity to trypsin and pepsin” value [3] is given as “very sensitive” and the “bactericidal activity and overall structure at higher temperatures” value [4] is given as “well maintained”.

For “nisin: class I bacteriocin, widely used in commerce (ITSISLCTPGCKTGALMGCNMKTATCHCSIHVSK; not fully specified; Lantibiotic nisin-A; UniProt P13068 24-57, looked up)”, the “effect of NaCl on antimicrobial activity” value ([4]; addition of NaCl from 0 to 1.17 M) is listed as “significantly enhanced”.
